# In PubChem BioAssay (NCI):
#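 Briefly, cells in 96-well plates were exposed to five compound concentrations for 48 h, and endpoints were estimated by linear interpolation. GI50 = concentration required for 50% inhibition of growth. TGI marks complete inhibition of growth.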
# Legend:
# Assay in all cases: inhibition of tumour cell growth, NCI panel, 48 h
# [1] = test system: ACHN renal
# [2] = test system: CCRF-CEM leukemia
# [3] = test system: COLO 205 colon
# [4] = test system: OVCAR-5 ovarian
# [5] = test system: SK-MEL-28 melanoma
# [6] = test system: SW-620 colon
# [7] = test system: T-47D breast
# [8] = test system: TK-10 renal
# [9] = test system: UACC-257 melanoma
# [10] = test system: UO-31 renal
SMILES,GI50 [1],TGI [1],GI50 [2],TGI [2],GI50 [3],TGI [3],GI50 [4],GI50 [5],TGI [5],GI50 [6],TGI [6],GI50 [7],TGI [7],GI50 [8],TGI [8],GI50 [9],TGI [9],GI50 [10],TGI [10],TGI [4]
COc1ccc(/C=C(\C#N)n2nnc3ccccc32)cc1,0.434 µM,17.2 µM,0.295 µM,> 100 µM,0.0849 µM,1.31 µM,0.463 µM,1.65 µM,> 86.9 µM,0.0603 µM,> 100 µM,0.0865 µM,72.9 µM,2.22 µM,58.6 µM,4.92 µM,> 100 µM,1.01 µM,13 µM,
Oc1ccccc1C=Nc1nc(SCc2ccccc2)nc2[nH]ncc12,41.7 µM,> 100 µM,45.7 µM,> 100 µM,29.1 µM,> 100 µM,> 100 µM,82.8 µM,> 100 µM,40 µM,> 100 µM,26.7 µM,70.2 µM,23.9 µM,> 100 µM,52.3 µM,> 100 µM,94.8 µM,> 100 µM,> 100 µM
O=Cc1ccccc1B(O)O,,> 100 µM,,40 µM,,40.3 µM,,,> 100 µM,,> 100 µM,,62.4 µM,,> 100 µM,,> 100 µM,,> 100 µM,> 100 µM
COc1cc(/C=N/NC(=O)c2cnn3c2NC(c2ccccc2)C3)ccc1Oc1ccccc1 (stereo not drawn),1.33 µM,7.31 µM,1.43 µM,> 100 µM,0.819 µM,6.97 µM,2.34 µM,1.38 µM,6.94 µM,0.868 µM,10.1 µM,0.998 µM,16.9 µM,2.62 µM,11.5 µM,2.91 µM,15.6 µM,1.69 µM,12.2 µM,11.9 µM
O=P(CCCCP(=O)(c1ccccc1)c1ccccc1)(c1ccccc1)c1ccccc1.[Cl][Sn]([Cl])([c]1ccccc1)[c]1ccccc1,1.86 µM,3.53 µM,0.224 µM,2.39 µM,1.78 µM,3.98 µM,1.93 µM,1.7 µM,3.32 µM,0.696 µM,5.59 µM,0.073 µM,0.415 µM,1.77 µM,3.32 µM,1.68 µM,3.31 µM,1.68 µM,3.19 µM,4 µM
Cc1cc(=O)[nH]c2cc3c(c4c(n3Cc3ccc(Cl)cc3Cl)CC(C)(C)CC4=O)c(O)c12,> 100 µM,> 100 µM,82.3 µM,> 100 µM,> 100 µM,> 100 µM,,> 100 µM,> 100 µM,> 100 µM,> 100 µM,> 100 µM,> 100 µM,> 100 µM,> 100 µM,> 100 µM,> 100 µM,> 100 µM,> 100 µM,
C=C1C(=O)O[C@H]2[C@H](OC(C)=O)[C@@H](C)CCC/C(C)=C/CC[C@@]3(C)O[C@@H]3C[C@@H]12,,3.4 µM,,3.76 µM,,16.5 µM,,,11.1 µM,,> 23.1 µM,,3.62 µM,,5 µM,,11.7 µM,,7.51 µM,27.6 µM
O=c1[nH]c(=O)c2cc(C3CC(O)C(CO)O3)ccc2[nH]1 (stereo not drawn),,,> 100 µM,> 100 µM,> 100 µM,> 100 µM,> 100 µM,> 100 µM,> 100 µM,> 100 µM,> 100 µM,> 100 µM,> 100 µM,,,> 100 µM,> 100 µM,> 100 µM,> 100 µM,> 100 µM
COc1ccc(NC(=O)COCCOCCNC[C@@H]2C(=O)O[C@H]3[C@H]2CC/C(COC(=O)OC/C2=C/CC[C@@]4(C)O[C@H]4[C@H]4OC(=O)[C@@H](CN(C)C)[C@@H]4CC2)=C\CC[C@@]2(C)O[C@@H]32)c(O)c1C(N)=O,0.987 µM,2.21 µM,1.21 µM,3.27 µM,1.06 µM,2.52 µM,8.9 µM,2.79 µM,9.57 µM,1.14 µM,2.87 µM,1.71 µM,10.4 µM,2.72 µM,9.12 µM,6.1 µM,13.2 µM,2.51 µM,9.13 µM,17.4 µM
C=C(C)[C@@H]1CC[C@]2(C)[C@H](CC=C3[C@@H]4[C@@H](C)[C@H](C)CC[C@]4(C(N)=O)CC[C@]32C)[C@@]1(C)CCC#N,3.37 µM,> 100 µM,3.73 µM,45 µM,4.01 µM,15.6 µM,5.75 µM,7.57 µM,22.7 µM,4.5 µM,> 100 µM,2.85 µM,> 100 µM,8.41 µM,91.5 µM,5.39 µM,76.5 µM,3.46 µM,26.1 µM,> 100 µM
COC(=O)CCC1CCC(c2cc(F)ccc2F)(S(=O)(=O)c2ccc(Cl)cc2)CC1 (stereo not drawn),> 100 µM,> 100 µM,> 100 µM,> 100 µM,> 100 µM,> 100 µM,> 100 µM,> 100 µM,> 100 µM,> 100 µM,> 100 µM,39.3 µM,> 100 µM,> 100 µM,> 100 µM,48.9 µM,> 100 µM,28 µM,> 100 µM,> 100 µM
C=C1C(=O)O[C@H]2[C@H]1CCC(/C=N/c1ncc(Br)cc1N)=C\CC[C@@]1(C)O[C@@H]21,1.41 µM,4.9 µM,0.429 µM,10.8 µM,1.65 µM,3.59 µM,3.2 µM,2.37 µM,6.07 µM,1.33 µM,3.3 µM,1.55 µM,4.9 µM,1.6 µM,3.19 µM,1.8 µM,4.45 µM,1.28 µM,2.63 µM,11.5 µM
